# From patent publication US12048704B2, “Method for treatment of cancer with combination of cold atmospheric plasma and a gene inhibitor” (Jerome Canady Research Institute for Advanced Biological …, priority 2019, dated 2024)
# Test system: MDA-MB-231 cells
# Assay: MTT cell viability assay with/without CAP treatment
# Type: cell-based, Human
# Conditions: for cell viability (baseline toxicity), agent alone: MDA-MB-231, without CAP treatment, MTT 24 hours
# Experimental: Human breast cancer cell lines T-47D, SK-BR-3, and BT-474, were purchased from ATCC (Manassas, Va., USA). MCF-7, MDA-MB-231, Hs578T, and HCC1806 were generously donated by Professor Kanaan' s laboratory at Howard University. All cell lines except SK-BR-3 were cultured in Roswell Park Memorial Institute (RPMI) 1640 Medium supplemented with 10% fetal bovine serum (Sigma-Aldrich, St. Louis, Mo., USA) and 1% Pen Strep (Thermo Fisher Scientific, Waltham, Mass., USA) in a 37° C. and 5% CO2 humidified incubator (Thermo Fisher Scientific, Waltham, Mass., USA). The exceptions for culture conditions include T-47D, which was additionally supplemented with 0.5 mg/mL insulin. SK-BR-3 was cultured in McCoy's 5A Medium. When cells reached approximately 80% confluence, cells were seeded at a concentration of 10^5 cells/well into 12-well plates (USA Scientific, Ocala, Fla., USA) with a 1 mL media volume per well for cell viability assays. MDA-MB-231 cells were transfected with siRNA and transfection reagent according to the manufacturer's instructions. Transfection of BCL2A1 esiRNA or control esiRNA was done at 13 pmol. Briefly, cells were seeded in a 12-well-plate at a density of 1×10^5 cells/well overnight in (RPMI) 1640 Medium supplemented with 10% fetal bovine serum (Sigma-Aldrich, St. Louis, Mo., USA) and 1% Pen Strep (Thermo Fisher Scientific, Waltham, Mass., USA) in a 37° C. and 5% CO2 humidified incubator. The media was replaced with antibiotics-free medium RPMI 2 minutes before the transfection. esiRNA was mixed with Lipofectamine RNAiMAX transfection reagent in 100 μl optimal medium at the required concentration of 13 pmol/mL and were incubated at room temperature for 30 min to form a complex and the mixture was supplemented to each well with optimal medium. Four hours after the transfection, the transfected cells were CAP treated. After 24 hours after the CAP treatment, cells viability was assessed by using MTT assay. Thiazolyl blue tetrazolium bromide (MTT) assay was performed on the cells 24 hours after plasma treatment following the manufacturer's protocol with all MTT assay reagents purchased from Sigma-Aldrich (St. Louis, Mo., USA). The absorbance of the dissolved compound was measured by BioTek Synergy HTX (Winooski, Vt., USA) microplate reader at 570 nm following standard procedure. All viability assays were repeated 3 times with at least 2 replicates each. Data was plotted by Microsoft Excel 2016 as the mean±standard error of the mean. A student t-test or a one-way analysis of variance (ANOVA) was used to check statistical significance where applicable. The differences were considered statistically significant for * p<0.05. A one-way multivariate analysis of variance (MANOVA) followed by a Post-Hoc test was used to check statistical significance where applicable. […] At 24 hrs after transfection with BCL2A1 esiRNA (13 pmol), as mentioned in methods section survival of treatments was determined by MTT assay. The data is represented by the SEM (n=3). (**** P<0.0001* p<0.05, ** p<0.01, *** p<0.001, Student's t-test) versus control. FIGS. 19A-19B show viability of triple cancer breast cancer cell line MDA-MB-231 with Gambogic acid, an antagonist of antiapoptotic Bc1-2 family (FIG. 19A) or CPI203 (FIG. 19B, a BET bromodomain inhibitor after CAP treatment. Bar graph represents MDA-MB-231 MTT cell viability assay after treatment with Gambogic acid (FIG. 19A) or CPI203 (FIG. 19B) in combination of with/without CAP treatment at 80 p Or 120 p 5 mins at 3 L/min He. The samples were compared to the mock control groups. The data is represented by the SEM (n=3). (* p<0.05, ** p<0.01, *** p<0.001, Student's t-test).
SMILES,"cell viability, CPI203 with CAP treatment (MDA-MB-231, 0.25 uM, p<0.05)","cell viability, CPI203 with CAP treatment (MDA-MB-231, 1uM, p<0.01)","cell viability, CPI203 with CAP treatment (MDA-MB-231, 5uM, p<0.001)","cell viability (baseline toxicity), agent alone","CAP-induced cell death, combination of CAP and agent (breast cancer cells, p<0.05)","cell viability in combination with CAP treatment compared to CAP treatment alone (MDA-MB-231, CAP 80 p or 120 p 5 mins at 3 L/min He, MTT 24 hours after CAP)"
Cc1sc2c(c1C)C(c1ccc(Cl)cc1)=N[C@@H](CC(N)=O)c1nnc(C)n1-2 [CPI203],significant reduction in cell viability,significant reduction in cell viability,significant reduction in cell viability,without any cytotoxicity by itself,dramatically increased the CAP-induced cell death,–
"CC(C)=CCC[C@]1(C)C=Cc2c(O)c3c(c(CC=C(C)C)c2O1)O[C@]12C(=C[C@@H]4C[C@H]1C(C)(C)O[C@@]2(C/C=C(/C)C(=O)O)C4=O)C3=O [GA, gambogic acid]",–,–,–,cell viability decreased in all the 5 doses,–,no dose that significantly reduced the viability of cells
